By AC50 is commonly meant the midpoint of the concentration-response curve, whichever way the signal moves.

Molecules are shown by their SMILES. The source made the active and inactive calls.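 The calls were made as follows: active = AC50 no more than tenfold above the top dose tested, or full inhibition at every dose with a flat fit (cut at about 19 µM in these data); inconclusive = flat curve fit with inhibition between 30% and 70%, or poor fit; inactive = AC50 more than tenfold above the top dose tested.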

The values that follow come from PubChem BioAssay AID463074 (Broad Institute, 2010).

The assay deals with HMLE_sh_eGFP viability, CellTiter-Glo luminescence, 72 h. In words: cytotoxicity in HMLE control line with eGFP shRNA, dose response, counter-screen for HMLE_sh_ECad selective toxicity project, cell-based, HMLE_sh_eGFP, luminescence (AID 463074).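 Also: potency for loss of viability as luminescence drops below DMSO wells.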 In general terms: The purpose of a counterscreen is to sort out artefacts and off-target activity.
Take `CC(=O)[C@@]1(O)C(C)CC2C3C=C(C)C4=Cc5c(cnn5-c5ccccc5)C[C@]4(C)C3C(O)C[C@@]21C` (some centres not stated): the AC50 was 4.03 µM. Consider `COc1ccc2nc(NC(=O)c3cccc(-c4cc5ccccc5oc4=O)c3)sc2c1`, for which the half-maximal activity concentration (AC50) was 4.88 µM. In the case of `S=c1[nH]nc(COc2ccccc2)n1/N=C/C(Cl)=C/c1ccccc1` it was 3.55 µM; in that of `CN(C(=S)Nc1ccc(SC(F)F)cc1)C(c1ccccc1)c1ccccc1`, 5.58 µM; in that of `Nc1cc(Cl)ccc1Oc1ccc2ccccc2c1`, > 10 µM (inactive). With `COc1ccc(Nc2nc(-c3ccccc3O)nc3ccccc23)cc1`, the concentration at half-maximal activity (AC50) is 4.79 µM. Turning to `COC(=O)c1ccc(/C=C/c2c(-c3ccsc3)sc3ccccc23)cc1`, the AC50 was 7.46 µM. Turning to `Cc1cc(Nc2cccc([N+](=O)[O-])c2)n2c(nc3ccccc32)c1C#N`, the concentration at half-maximal activity (AC50) is 9.61 µM.

For the compound `Cc1nnc2sc(SCc3cccc(Cl)c3)nn2c1=O`, the AC50 was > 19.5 µM (inactive).

On to `O=C(NNC(=O)c1cc(Cl)ccc1O)c1ccc(NS(=O)(=O)c2cccs2)cc1`, for which the AC50 is 8.13 µM.

Take `Cc1cc(N2C(=O)C=CC2=O)c([N+](=O)[O-])cc1C`: the AC50 is 5.88 µM. Turning to `C=C(C)COc1ccc(-c2n[nH]c(C)c2-c2ccc(OC)c(OC)c2)c(O)c1`, the concentration at half-maximal activity (AC50) is 2.65 µM. For `COc1ccc(OC)c(C(=O)CSc2nccc(-c3ccc(Br)cc3)n2)c1`, the AC50 was 1.31 µM. For the compound `Nc1ccccc1N=Cc1c(O)n(CCC2=CCCCC2)c(=O)[nH]c1=O`, the AC50 was > 19.5 µM (inactive). As to `COc1ccc(/C=C(\C#N)c2c[nH]c3ccccc23)cc1`, the concentration at half-maximal activity (AC50) is 0.577 µM.

Regarding `O=C(COC(=O)c1c2c(nc3ccccc13)/C(=C\c1cccs1)CCC2)Nc1ccccc1`, the AC50 is 2.77 µM.

In the case of `CC(C)(Sc1ccc(CCN(CCCCC2CCCCC2)C(=O)NC2CCCCC2)cc1)C(=O)O`, the half-maximal activity concentration (AC50) is 5.57 µM. For `Cc1cccc(NC(=S)NCC(C)CSc2ccc(Cl)cc2)c1` (configuration not stated), the half-maximal activity concentration (AC50) was 7.05 µM. Consider `O=C(/C=C/c1ccccc1)/C=C/c1ccccc1`, for which the AC50 is 2.84 µM. Regarding `COc1ccc(C(=O)NC(=S)Nc2ccccc2N2CCCCC2)cc1[N+](=O)[O-]`, the half-maximal activity concentration (AC50) was 0.574 µM. As for `CC1(C)Cc2c(C#N)c(NC3CCCCC3)nc(-c3ccco3)c2CO1`, the half-maximal activity concentration (AC50) is 7.19 µM.

On to `O=C(NCc1ccc2c(c1)OCO2)c1nc(S(=O)(=O)Cc2ccccc2F)ncc1Cl`, for which the half-maximal activity concentration (AC50) is 6.81 µM.

In the case of `COc1cccc(Nc2nc(-c3cccs3)nc3ccccc23)c1`, the half-maximal activity concentration (AC50) was 7.32 µM. On to `COc1ccc(/C=N/NC(=S)Nc2ccccc2[N+](=O)[O-])cc1O`, for which the AC50 is 5.87 µM.

Turning to `COc1ccccc1/C=C1\SC(=O)N(CCC(=O)NCCCn2ccnc2)C1=O`, the AC50 is 19.5 µM. Regarding `CC(C)(C)c1cc(C=C(C#N)C#N)cc(C(C)(C)C)c1O`, the AC50 was 3.08 µM.

With `CC(C)c1ccc(/C=N/NC(=O)c2cccc(Cl)c2)cc1`, the half-maximal activity concentration (AC50) is 8.64 µM. For the compound `Cc1c(C2(O)CCCCC2)[nH]c2ccc(C(F)(F)F)cc12`, the AC50 was 6.11 µM.

For the compound `CC(C)(C)C1CCc2c(sc(NC(=O)CSc3ncn[nH]3)c2C#N)C1` (configuration not stated), the concentration at half-maximal activity (AC50) is 4.79 µM. In the case of `Cc1cccc(N/N=C/c2ccccc2O)c1`, the AC50 was 18.6 µM. `CCc1ccc([C@@H]2CC=C(C(=O)O)[C@H](c3ccc(Cl)cc3)N2S(=O)(=O)c2ccc(C)cc2)cc1`: the AC50 is 7.1 µM.

In the case of `Clc1ccc(COC(Cn2ccnc2)c2ccc(Cl)cc2Cl)c(Cl)c1` (configuration not stated), the half-maximal activity concentration (AC50) was 6.47 µM. Take `Brc1cccc(OCCN2CCc3ccccc3C2)c1`: the AC50 was > 19.5 µM (inactive). For the compound `COc1ccc(NC(=O)c2cc3ccc(O)cc3o/c2=N\O)cc1`, the AC50 was 9.36 µM.

As to `COc1ccc2c(C)nc(Nc3nc(C)c(C)c(=O)[nH]3)nc2c1`, the AC50 is 7.16 µM. For the compound `FC(F)(F)c1cccc(NC(=S)N(CCCN2CCCC2)Cc2cccn2Cc2ccc(Cl)cc2)c1`, the AC50 was 3.51 µM. With `COc1ccc(-c2c(C#N)c(SCC(=O)c3cc4ccccc4oc3=O)nc(C)c2C(=O)Nc2ccccc2)cc1`, the AC50 is 1.5 µM. Turning to `C[C@@H]1CCC(=O)N(CC[C@H](Sc2ccc(Br)cc2)c2ccccc2)CC1`, the concentration at half-maximal activity (AC50) is 5.66 µM.

For the compound `Brc1ccc(/C=N/Nc2ccccc2)cc1`, the concentration at half-maximal activity (AC50) was 8.16 µM.

On to `CCC1CCCCN1S(=O)(=O)c1ccc(S(=O)(=O)N(Cc2ccccn2)CC2CCCO2)cc1` (configuration not stated), for which the AC50 is 2.49 µM.

Take `O=C1C=C(Nc2ccc(F)cc2)c2ccccc2C1=O`: the half-maximal activity concentration (AC50) was 6.78 µM.

Take `Cn1c(=O)c(C(=O)NNC(=O)c2ccc(Br)cc2)c(O)c2ccccc21`: the AC50 was 5.69 µM. On to `Cc1cccc(NC(=O)c2ccc(COc3ccc(Cl)cc3Cl)o2)n1`, for which the concentration at half-maximal activity (AC50) is 3.38 µM. For `O=C(NC1CONC1=O)OCC(Cl)(Cl)Cl` (configuration not stated), the AC50 was > 19.5 µM (inactive). Regarding `CC1CCN(CCCNC(=O)c2ccc3c(=O)n(Cc4ccc(Cl)cc4)c(=S)[nH]c3c2)CC1`, the concentration at half-maximal activity (AC50) was 5.33 µM. The figure for `CCCOc1ccc(-c2nc(N3CCN(CC)CC3)c3ccccc3n2)cc1` is 6.44 µM.

In the case of `O=c1c2ccccc2nc(/C=C/c2ccc(Br)cc2)n1CCO`, the AC50 is 16.6 µM.

Turning to `C/C(=N\Nc1cc(N2CCCCC2)nc(C)n1)c1ccc(Br)cc1`, the AC50 was 5.82 µM. `CCc1ccc(NC(=O)C(CC)Sc2nc3cc4c(cc3c(=O)n2Cc2ccco2)OCO4)cc1` (configuration not stated): the concentration at half-maximal activity (AC50) is 13.1 µM. For the compound `CCC1=NN(C(=O)c2cccc(Br)c2)C(O)(c2ccc(Br)cc2)C1` (configuration not stated), the AC50 is 1.37 µM. For `Cc1cc(C(C)(C)C)ccc1OCCCCN1CCCC1`, the AC50 is 4.22 µM. Consider `O=C(CSc1nc2nc(-c3cccs3)cc(C(F)(F)F)c2c(=O)[nH]1)Nc1c(F)c(F)c(F)c(F)c1F`, for which the AC50 is 3.43 µM. For `Cc1occc1C(=O)Nc1ccc(OCc2ccccc2)cc1`, the AC50 is 6.25 µM.

Turning to `O=C(Nc1nnc(-c2ccc(Cl)cc2)o1)c1nc2ccccc2s1`, the AC50 is 5.29 µM. The figure for `CC1(C)Cc2c(c(N3CCOCC3)nc3sc4c(NN)ncnc4c23)CS1` is 11.4 µM; for `CC1CC1C(=O)N1CCN(S(=O)(=O)c2cc(C(F)(F)F)cc(C(F)(F)F)c2)CC1` (configuration not stated) it is 6.27 µM; for `COc1ccc(C=C2C=C(C(C)(C)C)C(=O)C(C(C)(C)C)=C2)cc1OC` it is 3.47 µM. In the case of `CCN(CC)CCNc1ncnc2c1sc1nc(N3CCOCC3)c3c(c12)CC(C)(C)SC3` it was 6.99 µM; in that of `CCN1CCN(Cc2ccc(NC(=O)c3ccc(C)c(NC(=O)c4cc(-c5ccc(Br)cc5)n[nH]4)c3)cc2C(F)(F)F)CC1`, 11.6 µM; in that of `OC(CNCc1ccco1)Cn1c2ccc(Br)cc2c2cc(Br)ccc21` (configuration not stated), 3.64 µM. The figure for `CC1(C)C=Cc2c(ccc3c2OC[C@@H](c2ccc(O)cc2O)C3)O1` is 7.27 µM; for `O=C(Nc1ccc(-c2csc(Nc3ccc(Cl)cc3)n2)cc1)c1cc([N+](=O)[O-])cc(C(F)(F)F)c1` it is 3.08 µM. Take `CC1(C)CC[C@]2(C(=O)O)CC[C@]3(C)C(=CC[C@@H]4[C@@]5(C)CC[C@H](O[C@@H]6O[C@H](C(=O)O)[C@@H](O)[C@H](O[C@@H]7OC[C@H](O)[C@H](O)[C@H]7O)[C@H]6O)C(C)(C)[C@@H]5CC[C@]43C)[C@@H]2C1`: the concentration at half-maximal activity (AC50) is 5.14 µM. The figure for `CC1(C)C(=O)N(c2ccccc2)C1c1ccccc1O` (configuration not stated) is 3.25 µM; for `Cc1cccc(C(=O)NNC2=C(C(=O)C(F)(F)F)CCC2)c1O` it is 3.91 µM; for `CCCC(c1nnnn1CC1CCCO1)N1CCN(c2cc(Cl)ccc2C)CC1` (configuration not stated) it is 2.78 µM. Take `O=C(N/C=N/OCc1ccc(Cl)cc1Cl)NOCc1ncc(C(F)(F)F)cc1Cl`: the half-maximal activity concentration (AC50) is 5.04 µM. `N#Cc1ccc(Nc2nc(-c3ccc(O)cc3O)cs2)cc1C(F)(F)F`: the AC50 is 3.87 µM. For `O=c1cc(N2CCCCC2)c(-c2ccccc2)nn1Cc1cccc(F)c1`, the AC50 was 5.13 µM. In the case of `COc1ccc(/C=N/Nc2cc(N3CCCC3)nc(N3CCCC3)n2)cc1`, the AC50 is 5.14 µM. In the case of `CC(=O)NC(c1cc(Cl)c2cccnc2c1O)C1CC1` (configuration not stated), the AC50 was 9.04 µM. The figure for `COc1ccc2sc(-c3ccc(SC)cc3)c(C#CC(C)(C)O)c2c1` is 6.66 µM; for `CC(C)OCCCNC(=O)c1c(N)n(Cc2cccs2)c2nc3ccccc3nc12` it is 4.3 µM. In the case of `CCOC(=O)c1c(-c2ccc(Cl)cc2)csc1NC(=O)CNCc1ccco1`, the AC50 is 5.2 µM. As for `CCCCNc1c(-c2cccc(Sc3ccc(OC)cc3)c2)nc2ccccn12`, the AC50 is 6.56 µM. In the case of `COc1ccc(-c2sc3cc(OC)c(OC)cc3c2C#CC2(O)CCCCC2)cc1` it was 5.19 µM; in that of `Cc1cc(N2CCN(C)CC2)nc2ccc(NC(=S)N3CCN(c4ccc(F)cc4)CC3)cc12`, 5.94 µM. In the case of `Fc1ccc(CSc2nc3ccccc3[nH]2)c2ccccc12` it was 5.51 µM.

Take `O=[N+]([O-])c1ccc(N/N=C/c2c[nH]c3ccccc23)c(S(=O)(=O)Nc2ccc(Cl)cc2)c1`: the half-maximal activity concentration (AC50) is 1.66 µM.

Turning to `COc1ccc(-c2sc3ccccc3c2-c2ccc(OCCN3CCCCC3)cc2)cc1`, the AC50 is 1.4 µM. For `CC1CCC2C(=O)N(c3ccc(NC4CCCCC4)c([N+](=O)[O-])c3)C(=O)C2C1` (configuration not stated), the AC50 was 4.01 µM. Consider `ClC1=C(Cl)C2(Cl)C3C(Cl)C=CC3C1(Cl)C2(Cl)Cl` (configuration not stated), for which the AC50 is 6.29 µM.

Consider `COc1cc2c(cc1NC(=O)c1cccc(S(=O)(=O)N(C)C)c1)oc1ccccc12`, for which the AC50 is 3.52 µM. As for `CN(C)CCCNc1ccc(-c2cc(Nc3cccc(Cl)c3)ncn2)cn1`, the half-maximal activity concentration (AC50) is 4.8 µM. The figure for `O=C(Nc1ccc(N2CCN(Cc3ccccc3F)CC2)cc1)c1ccc([N+](=O)[O-])o1` is 1.94 µM; for `COc1ccc(C(=O)NNc2ccccc2)cc1OC` it is 1.83 µM; for `O=C(CNC(=O)C1COc2ccccc2O1)N/N=C/c1ccc(O)cc1O` (configuration not stated) it is 5.21 µM.

Consider `CCCCc1ccc(/C(C)=N/Nc2cc(N3CCOCC3)nc(C)n2)cc1`, for which the AC50 is 4.99 µM. On to `C=CCC[C@@H](Cc1ccc(F)cc1)C(=O)OC[C@@H](Cc1c[nH]c2ccccc12)NC(=O)[C@@H](CC=C)CC(=O)N(CCO)Cc1ccccc1`, for which the AC50 was 7.13 µM. In the case of `Cc1ccc(-n2c(-c3cccs3)nc3ccccc3c2=O)cc1`, the AC50 is 3.36 µM. In the case of `O=C(NC(NC(=S)Nc1cccc(Cl)c1)C(Cl)(Cl)Cl)OCc1ccccc1` (configuration not stated), the concentration at half-maximal activity (AC50) was 3.93 µM. As to `C=C1CCN([C@@H](CC(C)C)C(=O)Nc2nc3ccc(Cl)cc3s2)S(=O)(=O)c2ccccc21`, the AC50 was 14.5 µM.
